Reference: PubChem BioAssay (NCI)
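Here, GI50 denotes the concentration required for 50% inhibition of growth. TGI: concentration producing complete growth inhibition.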

What was measured:
Test in all cases: inhibition of tumour cell growth, NCI panel, 384-well format
SK-MEL-5 melanoma = system: SK-MEL-5 melanoma
MOLT-4 leukemia = system: MOLT-4 leukemia
HT29 colon = system: HT29 colon
OVCAR-3 ovarian = system: OVCAR-3 ovarian
UO-31 renal = system: UO-31 renal
RPMI-8226 leukemia = system: RPMI-8226 leukemia
SK-MEL-28 melanoma = system: SK-MEL-28 melanoma
DU-145 prostate = system: DU-145 prostate
MDA-MB-435 melanoma = system: MDA-MB-435 melanoma
KM12 colon = system: KM12 colon
RXF 393 renal = system: RXF 393 renal
CAKI-1 renal = system: CAKI-1 renal
HCC-2998 colon = system: HCC-2998 colon
A498 renal = system: A498 renal
PC-3 prostate = system: PC-3 prostate
UACC-62 melanoma = system: UACC-62 melanoma
HL-60(TB) leukemia = system: HL-60(TB) leukemia
OVCAR-5 ovarian = system: OVCAR-5 ovarian
NCI/ADR-RES ovarian = system: NCI/ADR-RES ovarian
SW-620 colon = system: SW-620 colon
T-47D breast = system: T-47D breast
NCI-H23 lung = system: NCI-H23 lung
CCRF-CEM leukemia = system: CCRF-CEM leukemia
NCI-H522 lung = system: NCI-H522 lung
HOP-92 NSCLC = system: HOP-92 NSCLC
A549 NSCLC = system: A549 NSCLC
IGROV1 ovarian = system: IGROV1 ovarian
SF-539 CNS = system: SF-539 CNS
SK-OV-3 ovarian = system: SK-OV-3 ovarian
LOX IMVI melanoma = system: LOX IMVI melanoma
COLO 205 colon = system: COLO 205 colon
SN12C renal = system: SN12C renal
BT-549 breast = system: BT-549 breast
SR leukemia = system: SR leukemia
OVCAR-4 ovarian = system: OVCAR-4 ovarian
NCI-H460 NSCLC = system: NCI-H460 NSCLC
MDA-MB-468 breast = system: MDA-MB-468 breast
EKVX NSCLC = system: EKVX NSCLC
MDA-MB-231 breast = system: MDA-MB-231 breast
MALME-3M melanoma = system: MALME-3M melanoma
HS 578T breast = system: HS 578T breast
NCI-H322M lung = system: NCI-H322M lung
SNB-19 CNS = system: SNB-19 CNS
786-0 renal = system: 786-0 renal
M14 melanoma = system: M14 melanoma
HOP-62 NSCLC = system: HOP-62 NSCLC
SNB-75 CNS = system: SNB-75 CNS
K-562 leukemia = system: K-562 leukemia
TK-10 renal = system: TK-10 renal
MCF7 breast = system: MCF7 breast
ACHN renal = system: ACHN renal
SF-268 CNS = system: SF-268 CNS
UACC-257 melanoma = system: UACC-257 melanoma
HCT-15 colon = system: HCT-15 colon
SF-295 CNS = system: SF-295 CNS
NCI-H226 lung = system: NCI-H226 lung
OVCAR-8 ovarian = system: OVCAR-8 ovarian
HCT-116 colon = system: HCT-116 colon

## CC(C)(O)c1coc(S(=O)(=O)/N=C(\O)Nc2c3c(cc4c2CCC4)CCC3)c1
SK-MEL-5 melanoma
  GI50: > 100 µM
  TGI: > 100000 nM
MOLT-4 leukemia
  GI50: > 100 µM
  TGI: > 100 µM
HT29 colon
  GI50: > 100 µM
  TGI: > 100 µM
OVCAR-3 ovarian
  GI50: > 100 µM
  TGI: > 100000 nM
UO-31 renal
  GI50: > 100 µM
  TGI: > 100000 nM
RPMI-8226 leukemia
  GI50: > 100 µM
  TGI: > 100000 nM
SK-MEL-28 melanoma
  GI50: > 100 µM
  TGI: > 100000 nM
DU-145 prostate
  GI50: > 100 µM
  TGI: > 100 µM
MDA-MB-435 melanoma
  GI50: > 100000 nM
  TGI: > 100000 nM
KM12 colon
  GI50: > 100000 nM
  TGI: > 100000 nM
RXF 393 renal
  GI50: > 100 µM
  TGI: > 100000 nM
CAKI-1 renal
  GI50: > 100 µM
  TGI: > 100000 nM
HCC-2998 colon
  GI50: > 100 µM
  TGI: > 100000 nM
A498 renal
  GI50: > 100 µM
  TGI: > 100000 nM
PC-3 prostate
  GI50: > 100000 nM
  TGI: > 100 µM
UACC-62 melanoma
  GI50: > 100 µM
  TGI: > 100 µM
HL-60(TB) leukemia
  GI50: > 100 µM
  TGI: > 100 µM
OVCAR-5 ovarian
  GI50: > 100000 nM
  TGI: > 100000 nM
NCI/ADR-RES ovarian
  GI50: > 100 µM
  TGI: > 100000 nM
SW-620 colon
  GI50: > 100 µM
  TGI: > 100000 nM
T-47D breast
  GI50: > 100 µM
  TGI: > 100000 nM
NCI-H23 lung
  GI50: > 100 µM
  TGI: > 100000 nM
CCRF-CEM leukemia
  GI50: > 100 µM
  TGI: > 100 µM
NCI-H522 lung
  GI50: > 100 µM
  TGI: > 100000 nM
HOP-92 NSCLC
  GI50: > 100 µM
  TGI: > 100000 nM
A549 NSCLC
  GI50: > 100000 nM
  TGI: > 100000 nM
IGROV1 ovarian
  GI50: > 100000 nM
  TGI: > 100000 nM
SF-539 CNS
  GI50: > 100 µM
  TGI: > 100 µM
SK-OV-3 ovarian
  GI50: > 100 µM
  TGI: > 100000 nM
LOX IMVI melanoma
  GI50: > 100 µM
  TGI: > 100000 nM
COLO 205 colon
  GI50: > 100 µM
  TGI: > 100000 nM
SN12C renal
  GI50: > 100 µM
  TGI: > 100 µM
BT-549 breast
  GI50: > 100 µM
  TGI: > 100000 nM
SR leukemia
  GI50: > 100 µM
  TGI: > 100 µM
OVCAR-4 ovarian
  GI50: > 100000 nM
  TGI: > 100000 nM
NCI-H460 NSCLC
  GI50: > 100 µM
  TGI: > 100000 nM
MDA-MB-468 breast
  GI50: > 100 µM
  TGI: > 100 µM
EKVX NSCLC
  GI50: > 100000 nM
  TGI: > 100000 nM
MDA-MB-231 breast
  GI50: > 100000 nM
  TGI: > 100 µM
MALME-3M melanoma
  GI50: > 100000 nM
  TGI: > 100000 nM
HS 578T breast
  GI50: > 100000 nM
  TGI: > 100000 nM
NCI-H322M lung
  GI50: > 100000 nM
  TGI: > 100000 nM
SNB-19 CNS
  GI50: > 100 µM
  TGI: > 100000 nM
786-0 renal
  GI50: > 100 µM
  TGI: > 100000 nM
M14 melanoma
  GI50: > 100 µM
  TGI: > 100 µM
HOP-62 NSCLC
  GI50: > 100 µM
  TGI: > 100 µM
SNB-75 CNS
  GI50: > 100 µM
  TGI: > 100000 nM
K-562 leukemia
  GI50: > 100 µM
  TGI: > 100000 nM
TK-10 renal
  GI50: > 100000 nM
  TGI: > 100000 nM
MCF7 breast
  GI50: > 100 µM
  TGI: > 100 µM
ACHN renal
  GI50: > 100 µM
  TGI: > 100 µM
SF-268 CNS
  GI50: > 100 µM
  TGI: > 100 µM
UACC-257 melanoma
  GI50: > 100000 nM
  TGI: > 100000 nM
HCT-15 colon
  GI50: > 100 µM
  TGI: > 100000 nM
SF-295 CNS
  GI50: > 100 µM
  TGI: > 100 µM
NCI-H226 lung
  GI50: > 100 µM
  TGI: > 100000 nM
OVCAR-8 ovarian
  GI50: > 100 µM
  TGI: > 100000 nM

## CCc1c2c(nc3ccc(O)cc13)-c1cc3c(c(=O)n1C2)COC(=O)[C@]3(O)CC
SK-MEL-5 melanoma
  TGI: 16.9 nM
OVCAR-3 ovarian
  TGI: 36.4 nM
UO-31 renal
  TGI: 49.5 nM
RPMI-8226 leukemia
  TGI: 61.6 nM
SK-MEL-28 melanoma
  TGI: 156 nM
MDA-MB-435 melanoma
  GI50: 33.1 nM
  TGI: 266 nM
KM12 colon
  GI50: 20.5 nM
  TGI: 153 nM
RXF 393 renal
  TGI: 26.4 nM
CAKI-1 renal
  TGI: 92.6 nM
HCC-2998 colon
  TGI: 75.4 nM
A498 renal
  TGI: 129 nM
PC-3 prostate
  GI50: 115 nM
  TGI: 4.66 µM
OVCAR-5 ovarian
  GI50: 39.8 nM
  TGI: 249 nM
NCI/ADR-RES ovarian
  TGI: 30.3 nM
SW-620 colon
  TGI: 239 nM
T-47D breast
  TGI: 15.5 nM
NCI-H23 lung
  TGI: 13.3 nM
NCI-H522 lung
  TGI: 31.6 nM
HOP-92 NSCLC
  TGI: 64.4 nM
A549 NSCLC
  GI50: 34.4 nM
  TGI: 1060 nM
IGROV1 ovarian
  GI50: 24.7 nM
  TGI: 1050 nM
SK-OV-3 ovarian
  TGI: 17.5 nM
LOX IMVI melanoma
  TGI: 23.8 nM
COLO 205 colon
  TGI: 1060 nM
BT-549 breast
  TGI: 26.4 nM
OVCAR-4 ovarian
  GI50: 47.8 nM
  TGI: 224 nM
NCI-H460 NSCLC
  TGI: 15.6 nM
EKVX NSCLC
  GI50: 89.7 nM
  TGI: 2630 nM
MDA-MB-231 breast
  GI50: 128 nM
  TGI: 3.8 µM
MALME-3M melanoma
  GI50: 13.1 nM
  TGI: 297 nM
HS 578T breast
  GI50: 140 nM
  TGI: 1930 nM
NCI-H322M lung
  GI50: 22.3 nM
  TGI: 120 nM
SNB-19 CNS
  TGI: 16.3 nM
786-0 renal
  TGI: 12.5 nM
SNB-75 CNS
  TGI: 14.1 nM
K-562 leukemia
  TGI: 292 nM
TK-10 renal
  GI50: 35.1 nM
  TGI: 919 nM
UACC-257 melanoma
  GI50: 11.8 nM
  TGI: 285 nM
HCT-15 colon
  TGI: 137 nM
HCT-116 colon
  TGI: 114 nM
NCI-H226 lung
  TGI: 135 nM
OVCAR-8 ovarian
  TGI: 47.8 nM
